Data: US12612405B2, “Crystalline form of 1-(8-Bromopyrido[2,3-E][1,2,4]triazolo[4,3-a]pyrazin-4-Yl)-Nmethylazetidin-3-amine hydrogen sulfate monohydrate” (JW PHARMACEUTICAL CORPORATION, priority 2021, dated 2026)
“Also recorded” adds a separate entry of the source.

Columns and labels:
[1] = Solubility in common crystallization solvents; details: common crystallization solvents including alcohols
[2] = tested on: inflammatory cells such as mast cells and eosinophils; details: cited from earlier work
histamine 4 receptor = histamine 4 receptor (Homo sapiens, UniProt Q9H3N8); details: cited from earlier work
[3] = Interconversions between the crystalline forms (stability at rt, in suspension, during drying); format: physicochemical; details: for solid phase stability / transition at room temperature: rt, ambient conditions; for stability during drying: drying process; for stability under conditions / suspensions with high water content: high amounts of water
Text: The table below summarizes interconversions between the different forms and other issues which may be relevant to their use in pharmaceutical compositions: […]

[4] = Solubility according to Ph. Eur. and USP; format: physicochemical
Text: The solubility of form B according to Ph.

[5] = Dynamic Vapor Sorption (DVS); format: physicochemical; details: for hygroscopicity classification: according to Ph. Eur.
Description: Instrument: DVS Advantage
Methods: About 5 mg of the substance was added into Al pan and exposed to stepwise RH changes during two consecutive cycles according to; 20-30-40-50-60-70-80-70-60-50-40-30-20-10-0-10-20-30-40-50-60-70-80-90-80-70-60-50-40-30-20-10-0/RH using open loop mode. The experiments were performed using a gas flow rate of 200 ml/min and at 25° C. The dm/dt criteria applied was 0.001 weight-%/min during a 5 minutes window, with a maximum allowed time of 150 minutes for all steps, except for the steps at 0% RH which had no criteria but were set to 6 h.

[6] = Thermal stability by TGA / DSC; format: physicochemical
Description: TGA experiments were conducted using a TGA550 instrument from TA Instruments. About 1-10 mg of sample was loaded into a ceramic pan for the measurements. The sample temperature was ramped from 25 to 500° C. at 10° C./min. Nitrogen was used as the purge gas at a flow rate of 50 mL/min.
DSC analyses were carried out on a TA Instruments Q20 Differential Scanning Calorimeter. Accurately weighed samples were placed in crimped aluminum pans. Each sample was heated under nitrogen at a rate of 10° C./minute to a maximum of 300° C. Indium metal was used as the calibration standard.

Chain of histamine 4 receptor (Q9H3N8 whole entry): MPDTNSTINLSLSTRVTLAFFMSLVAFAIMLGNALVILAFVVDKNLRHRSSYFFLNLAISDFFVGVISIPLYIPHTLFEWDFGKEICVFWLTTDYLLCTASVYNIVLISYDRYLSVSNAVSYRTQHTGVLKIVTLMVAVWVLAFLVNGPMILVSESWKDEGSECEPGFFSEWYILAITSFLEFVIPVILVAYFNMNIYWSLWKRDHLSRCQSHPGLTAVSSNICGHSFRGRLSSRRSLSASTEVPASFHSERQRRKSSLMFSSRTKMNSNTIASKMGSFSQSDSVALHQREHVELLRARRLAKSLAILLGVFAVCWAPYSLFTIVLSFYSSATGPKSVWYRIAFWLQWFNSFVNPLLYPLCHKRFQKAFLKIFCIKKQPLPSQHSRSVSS

**Q.** Which “solubilities in common solvents used for crystallizations” value [1] does the source give for CNC1CN(c2nc3ncc(Br)cc3n3cnnc23)C1 [1-(8-bromopyrido[2,3-e][1,2,4]triazolo[4,3-a]pyrazin-4-yl)-N-methylazetidin-3-amine] here?
**A.** very low solubilities

**Q.** And the “effect against histamine induced infiltration of inflammatory cells” value [2]?
**A.** suppressive effects

**Q.** What about the “histamine 4 receptor inhibitory effect” value (histamine 4 receptor) of the same compound?
**A.** strong histamine 4 receptor inhibitory effect

**Q.** For CNC1CN(c2nc3ncc(Br)cc3n3cnnc23)C1.O=S(=O)(O)O [Form A, 1-(8-bromopyrido[2,3-e][1,2,4]triazolo[4,3-a]pyrazin-4-yl)-N-methylazetidin-3-amine hydrogen sulfate], which “solid phase stability / transition at room temperature” value (“solid phase stability / transition” below) ([3]; hydrogen sulfate) is on record?
**A.** that undergoes solid phase transition to form B at rt over time.

**Q.** With CNC1CN(c2nc3ncc(Br)cc3n3cnnc23)C1.O.O=S(=O)(O)O [Form B, 1-(8-bromopyrido[2,3-e][1,2,4]triazolo[4,3-a]pyrazin-4-yl)-N-methylazetidin-3-amine hydrogen sulfate monohydrate] as the compound, how does the solubility ([4]; 1-4-dioxane) read?
**A.** insoluble

**Q.** And the solubility ([4]; 1-propanol)?
**A.** insoluble

**Q.** And the solubility ([4]; 2-propanol)?
**A.** insoluble

**Q.** And the solubility ([4]; acetone)?
**A.** insoluble

**Q.** And the solubility ([4]; chloroform)?
**A.** insoluble

**Q.** And the solubility ([4]; dimethyl sulfoxide)?
**A.** Soluble

**Q.** And the solubility ([4]; dimethylformamide)?
**A.** slightly soluble

**Q.** And the solubility ([4]; ethanol)?
**A.** insoluble

**Q.** What about the solubility ([4]; ethyl acetate) of the same compound?
**A.** insoluble

**Q.** What about the solubility ([4]; isopropyl acetate) of the same compound?
**A.** insoluble

**Q.** What about the solubility ([4]; methanol) of the same compound?
**A.** very slightly soluble

**Q.** And the solubility ([4]; methyl tert-butyl ether)?
**A.** insoluble

**Q.** What about the solubility ([4]; n-butyl acetate) of the same compound?
**A.** insoluble

**Q.** What about the solubility ([4]; tert-amyl alcohol) of the same compound?
**A.** insoluble

**Q.** And the solubility ([4]; tetrahydrofuran)?
**A.** insoluble

**Q.** What about the solubility ([4]; water) of the same compound?
**A.** sparingly soluble

**Q.** What about the solubility ([4]; xylene) of the same compound?
**A.** insoluble

**Q.** What about the “water absorbed (DVS)” value ([5]; 25° C., between 10 and 80% RH) of the same compound?
**A.** By (DVS) it was demonstrated that form B absorbs 0.2%

**Q.** And the hygroscopicity classification ([5]; DVS)?
**A.** considered non-hygroscopic according to Ph. Eur. 5. (the increase in mass of a drug substance between about 0% to 80% relative humidity is less than 0.2% by weight)

**Q.** Which results are given for CNC1CN(c2nc3ncc(Br)cc3n3cnnc23)C1.O=S(=O)(O)O [Form C, 1-(8-bromopyrido[2,3-e][1,2,4]triazolo[4,3-a]pyrazin-4-yl)-N-methylazetidin-3-amine hydrogen sulfate]?
**A.** stability in liquid environment containing more than 20% water ([3]; liquid environment, more than 20% water): 20% water form C will not be stable and therefore can be; phase transition when humidity increased to 90% ([5]; DVS, humidity increased to 90%): observed and partial phase transition to the non-stoichiometric; hygroscopicity classification ([5]; DVS): is just in the range for being slightly hygroscopic. DVS; water uptake at increased relative humidity ([5]; increased relative humidity): The anhydrate significantly takes up water at increased

**Q.** Which “solid phase stability / transition” value ([3]; hydrogen sulfate) does the source give for CNC1CN(c2nc3ncc(Br)cc3n3cnnc23)C1.O=S(=O)(O)O [Form D, 1-(8-bromopyrido[2,3-e][1,2,4]triazolo[4,3-a]pyrazin-4-yl)-N-methylazetidin-3-amine hydrogen sulfate] here?
**A.** solid phase transformation to form C.

**Q.** And the “stability in suspension formulations” value ([3]; suspension formulations, hydrogen sulfate)?
**A.** converts to forms F, I, or N depending on the conditions.

**Q.** Which results are given for CNC1CN(c2nc3ncc(Br)cc3n3cnnc23)C1.O=S(=O)(O)O [Form F, 1-(8-bromopyrido[2,3-e][1,2,4]triazolo[4,3-a]pyrazin-4-yl)-N-methylazetidin-3-amine hydrogen sulfate]?
**A.** stability during drying ([3]; hydrogen sulfate): Converts to another form during drying process. The water can; also recorded: very easily be dried off; stability under conditions / suspensions with high water content ([3]; hydrogen sulfate): with high water content form F converts to form I.

**Q.** Which results are given for CNC1CN(c2nc3ncc(Br)cc3n3cnnc23)C1.O=S(=O)(O)O [Form I, 1-(8-bromopyrido[2,3-e][1,2,4]triazolo[4,3-a]pyrazin-4-yl)-N-methylazetidin-3-amine hydrogen sulfate]?
**A.** stability during drying ([3]; hydrogen sulfate): not stable during drying at room temperature where it; also recorded: converts to form K, which then converts to form C at room; also recorded: product as it converts to form C in drying processes; stability under conditions / suspensions with high water content [3]: the crystal structure. The dihydrate form I is the most stable

**Q.** Which stability during drying ([3]; hydrogen sulfate) does the source give for CNC1CN(c2nc3ncc(Br)cc3n3cnnc23)C1.O=S(=O)(O)O [Form K, 1-(8-bromopyrido[2,3-e][1,2,4]triazolo[4,3-a]pyrazin-4-yl)-N-methylazetidin-3-amine hydrogen sulfate] here?
**A.** Form K converts to form C in drying processes.

**Q.** And the “solid phase stability / transition” value ([3]; hydrogen sulfate)?
**A.** Form K converts to form C at room temperature.

**Q.** Which results are given for CNC1CN(c2nc3ncc(Br)cc3n3cnnc23)C1.O=S(=O)(O)O [Form M, 1-(8-bromopyrido[2,3-e][1,2,4]triazolo[4,3-a]pyrazin-4-yl)-N-methylazetidin-3-amine hydrogen sulfate]?
**A.** broad endothermic event due to water loss and breakdown of the crystal lattice [6]: 44 °C; temperature of weight loss (TGA curve) ([6]; TGA): 50 °C; thermal stability ([6]; hydrogen sulfate): Form M is a monohydrate but loses water and melts at very; also recorded: this low thermal stability form M is not suitable for

**Q.** For CNC1CN(c2nc3ncc(Br)cc3n3cnnc23)C1.O=S(=O)(O)O [hydrogen sulfate salt, 1-(8-bromopyrido[2,3-e][1,2,4]triazolo[4,3-a]pyrazin-4-yl)-N-methylazetidin-3-amine hydrogen sulfate], which “solubilities in common solvents used for crystallizations” value [1] is on record?
**A.** very low solubilities
